Values of other authors, collected in patent US20250268950A1, “PRENATAL SUPPLEMENT” (Arizona Board of Regents on Behalf of Arizona State …, priority 2021, published 2025).
Read-outs that look alike come from different tables or passages of the source.

Tests used:
[1] = for blood niacin lower than healthy non-pregnant controls: 20 mg/day, 563 US women
pregnant women = conditions: for decrease in anxiety symptoms / decrease in depression: RCT, 1 mg/day; for risk of anemia, RR: meta-analysis of 8 studies, supplementation
[2] = Cochrane, ≥1 g/day, 13 studies, 15,730 women
[3] = meta-analysis of 27 trials, 28,492 women
[4] = meta-analysis of 7 studies, 5-10 mg, usually repeated, imminent very preterm birth
[5] = one or more maternal doses of 10 mg
[6] = meta-analysis of seven RCTs, women with gestational diabetes

O=C(O)CCCC[C@@H]1SC[C@@H]2NC(=O)N[C@@H]21 [Biotin]
biotin levels ([1]; 30 mcg/day supplemental): sufficient to slightly increase levels of biotin above that of healthy controls
treatment of biotin deficiency ([1]; 300 mcg/day for two weeks): sufficient to treat the deficiency

[Ca] [Calcium]
preterm birth, RR (infants; Cochrane, ≥1 g/day): 0.76
risk of ASD, OR (infants; retrospective study in China): 0.48
incidence of pregnancy-induced hypertension (pregnant women; 120 mg (18% in control group)): 8.9%
incidence of pregnancy-induced hypertension (pregnant women; 240 mg (18% in control group)): 7.5%
incidence of pregnancy-induced hypertension (pregnant women; 1000 mg (18% in control group)): 8%
incidence of pregnancy-induced hypertension (pregnant women; 2000 mg (18% in control group)): 4%
cases of HELLP (pregnant women; 1500-2000 mg/day, two trials, 12,901 women (vs. 6 un-supplemented)): 16
risk of preeclampsia, RR (pregnant women; Cochrane, low-dose <1 g/day, 10 trials, 2234 women): 0.38
maternal death or serious morbidity, RR (pregnant women; Cochrane, ≥1 g/day): 0.80
risk of high blood pressure, RR (pregnant women; [2]): 0.65
risk of preeclampsia, RR (pregnant women; [2]): 0.45
rate of proteinuric PIH (pregnant women; Hong Kong, 600 mg weeks 22-32, 1200 mg/day to birth (vs. 10.7% placebo)): 5.6%
rate of non-proteinuric PIH (pregnant women; Hong Kong, 600 mg weeks 22-32, 1200 mg/day to birth (vs. 24% placebo)): 15%
reducing risk of preeclampsia, PIH, and hypertension (pregnant women; Trinidad, 510 women, 1200 mg): much more effective than 600 mg of calcium plus aspirin
gestational hypertension, RR (pregnant women; [3]): 0.70
risk of preeclampsia, RR (pregnant women; [3]): 0.51

C[N+](C)(C)CCO [Choline]
Tolerable Upper Limit for Pregnant Women (Table 12): 3500 mg/day
safety (pregnant women; 900 mg/day of choline (as phosphatidylcholine)): safe

[Cu] [Copper]
Tolerable Upper Limit for Pregnant Women (Table 18): 10 mg
decrease in anxiety symptoms (pregnant women; second trimester): 45%
decrease in depression (pregnant women; second trimester): 75%
decrease in anxiety symptoms (pregnant women; third trimester): 80%
decrease in depression (pregnant women; third trimester): 90%
copper levels ([1]; 2 mg as part of a multi-vitamin/mineral supplement, France): no difference in copper levels between treatment and placebo groups

CC/C=C\C/C=C\C/C=C\C/C=C\C/C=C\C/C=C\CCC(=O)O [DHA, Docosahexaenoic acid]
increase of RBC DHA ([1]; 300 mg/day (controls decreased 10%)): 7%
increase of RBC DHA ([1]; 600 g/day group (so in the source)): 21%

Nc1nc2ncc(CNc3ccc(C(=O)N[C@@H](CCC(=O)O)C(=O)O)cc3)nc2c(=O)[nH]1 [Folate]
serum folate levels at postpartum ([1]; 355 mcg plus iron supplement, Scotland): sufficient to maintain median serum folate levels at postpartum that were equivalent to that of healthy non-pregnant women

[Fe] [Iron]
subjects in whom iron deficiency anemia was reduced (pregnant women; 60 mg 3×/day (180 mg total), 12 participants with IDA): 75%
reduction of iron-deficiency anemia at term (pregnant women; meta-analysis, 6 trials, 1088 women): 67%
reduction of iron deficiency at term (pregnant women; meta-analysis, 7 trials, 1256 women): 57%
reduction of maternal anemia at term (pregnant women; meta-analysis, 14 trials, 2199 women, mostly 30-200 mg/day): 70%
megaloblastic anemia (pregnant women; only iron (11% unsupplemented)): 6%

O=C(O)c1cccnc1 [Niacin]
blood niacin lower than healthy non-pregnant controls ([1]; first trimester): 29%
blood niacin lower than healthy non-pregnant controls ([1]; second trimester): 35%
blood niacin lower than healthy non-pregnant controls ([1]; third trimester): 38%

Cc1cc2nc3c(=O)[nH]c(=O)nc-3n(C[C@H](O)[C@H](O)[C@H](O)CO)c2cc1C [Riboflavin]
cases of severe preeclampsia (pregnant women; 15 mg/day, Venezuela): significant decrease in the number of cases of severe preeclampsia

[Se] [Selenium]
reduction of odds of preeclampsia or PIH (pregnant women; 60 i.g/day, 230 women in the UK): 65%
pregnancy-induced hypertension (pregnant women; 100 i.g during last 6-8 weeks, women at risk (vs. 23%)): 8%
gestational edema (pregnant women; 100 i.g during last 6-8 weeks, women at risk (vs. 33%)): 15%
postpartum depression (pregnant women; 100 i.g/day): treat postpartum depression
existing gestational edema cured (pregnant women; 100 i.g, 26 cases (1 out of 13 with placebo)): 88%
glucose, insulin, CRP, oxidative stress (pregnant women; 200 i.g/day for 6 weeks, 70 women with gestational diabetes): significant improvements in fasting glucose, serum insulin, C-reactive protein, and oxidative stress
rate of permanent hypothyroidism (pregnant women; 200 i.g/day, women at high risk (vs. 20%)): 12%
rate of postpartum thyroid deficiency (pregnant women; 200 i.g/day, women at high risk (vs. 49%)): 29%

Cc1ncc(C[n+]2csc(CCO)c2C)c(N)n1 [Thiamine]
effect on glucose tolerance and intra-uterine growth (pregnant women; supplementation in pregnant women): improves their glucose tolerance, and stimulates intra-uterine growth
thiamine levels lower than non-pregnant women ([1]; multi-vitamin containing 3 mg, 563 pregnant women): approximately 31%

CC1=C(/C=C/C(C)=C/C=C/C(C)=C/CO)C(C)(C)CCC1 [Vitamin A, retinol]
Tolerable Upper Limit for Pregnant Women (Table 12): 3 mg
reduction of night blindness during pregnancy (pregnant women; Nepal, 7000 mcg/week): 67%
risk of anemia, RR (pregnant women): 0.81
vitamin A levels lower than healthy non-pregnant controls ([1]; 5000 IU/day (50% as beta carotene), first, second, third trimesters): 27%

[Zn] [Zinc]
reduction in chance of infant impetigo (infants; 30 mg/day): 54%
preterm birth, RR (infants; meta-analysis of 16 randomized, controlled trials, mostly 20-30 mg): 0.86

CC1=C(/C=C/C(C)=C/C=C/C(C)=C/C=C/C=C(C)/C=C/C=C(C)/C=C/C2=C(C)CCCC2(C)C)C(C)(C)CCC1 [beta-carotene]
benefit on night blindness compared with vitamin A (pregnant women; Nepal): about half as much benefit
risk of anemia, RR (pregnant women): 0.81

Nc1nc2ncc(CNc3ccc(C(=O)N[C@@H](CCC(=O)O)C(=O)O)cc3)nc2c(=O)[nH]1 [folic acid]
risk of ASD in the child, RR (infants; meta-analysis of 6 prospective studies, maternal supplementation): 0.64
NTDs, OR (infants; meta-analysis, multi-vitamin supplement containing folic acid): 0.67
prevalence of gestational diabetes (pregnant women; women with PCOS, folic acid only 1.5 mg): 54%
average blood folate level ([1]; 1000 mcg/day, each trimester, 563 US women (10 ng/ml in controls)): 25 to 26 ng/mL

O=S(=O)([O-])[O-].[Mg+2] [magnesium sulfate, reference compound]
reduction of risk of cerebral palsy (infants; 4-6 g intravenously, mothers at high risk of preterm birth, meta-analysis of five studies): approximately 32%
maternal complications (pregnant women; 4-6 g intravenously): no major complications

CC1=C(C/C=C(\C)CCC[C@H](C)CCC[C@H](C)CCCC(C)C)C(=O)c2ccccc2C1=O [phylloquinone]
infant plasma vitamin K as % of formula-fed infants ([1]; lactating mothers 5 mg/day, infants 1 mg intramuscularly at birth): 50%

C[Se]CC[C@H](N)C(=O)O [selenome-thionine, selenomethionine]
preeclampsia or preterm birth vs placebo (pregnant women; 100 i.g/day, randomized trial of 169 women): no significant differences were seen for either preeclampsia or preterm birth

CC(=O)[O-].CC(=O)[O-].[Zn+2] [zinc acetate]
benefit of zinc form (infants; two studies): not beneficial

CC(O)C(=O)[O-].CC(O)C(=O)[O-].[Zn+2] (stereo not shown) [zinc lactate]
low birth weight, preterm birth, intrauterine growth retardation (infants; 30 mg/day): great improvements in the incidence of low birth weight, preterm birth, and intrauterine growth retardation
benefit (infants; doses of 5 and 10 mg): no benefit
serum zinc ([1]; 30 mg): enough to slightly increase zinc levels

O=S(=O)([O-])[O-].[Zn+2] [zinc sulfate]
infant birth weight and head circumference (infants; 25 mg/day, women with relatively low plasma zinc): greater infant birth weights and head circumferences
decrease of serum zinc, week 17 to week 31-36 ([1]; 20 mg, 138 Hispanic teenagers (14% non-supplemented)): 8%
decrease of plasma zinc from beginning to end of pregnancy ([1]; 25 mg/day, U.S. women with low initial plasma zinc (11% un-supplemented)): 7%
zinc levels ([1]; averaging 11 mg/day, U.S.): little effect on plasma levels but did increase hair and possibly saliva levels

Cobalamin [Vitamin B12]
levels lower at end of pregnancy vs healthy non-pregnant controls ([1]; 12 mcg/day, US): 38%
maternal and infant B12 levels ([1]; 50 mcg/day during pregnancy and early lactation, India): significant increases in maternal B12 levels in blood and breastmilk, and infant levels of B12
vitamin B12 levels during pregnancy ([1]; approximately 3× the RDA (diet 6 mcg + supplements 2.6 mcg), 26 women): enough to stabilize vitamin B12 levels during pregnancy
decrease in serum B12 by third trimester vs first ([1]; total consumption of 2× the RDA): 30%

Vitamin K
risk of childhood cancer (infants; meta-analysis of 6 studies, infantile supplementation): no risk of childhood cancer
brain bleeding, RR (non-significant) (infants; [4]): 0.76
severe brain bleeding, RR (infants; [4]): 0.58
vitamin K level in the infant vs un-supplemented controls, times higher [1, 5]: 2
vitamin K level in the mother vs un-supplemented controls, times higher [1, 5]: 100
vitamin K level ([1]; pregnant women with previous bariatric surgery, 10 mg per week): normal or above-normal level of vitamin K

calcium pantothenate
blood levels of pantothenic acid ([1]; 10 mg/day): slightly higher blood levels of pantothenic acid compared to non-pregnant controls
bound pantothenic acid as % of levels in controls ([1]; 60 mg from 4.5 months gestation, at 7.5 months): 59%
free pantothenic acid vs controls, fold higher ([1]; 60 mg from 4.5 months gestation, at 7.5 months and at term): 2
bound pantothenic acid as % of levels in controls ([1]; 60 mg from 4.5 months gestation, at term): 104%

magnesium gluconate
rate of pregnancy-induced hypertension (pregnant women; 184 mg/day): substantially reduced the rate of pregnancy-induced hypertension

omega-3 fatty acids
neonatal care admissions, RR (possibly fewer) (infants; meta-analysis of 70 RCTs): 0.92
perinatal death, RR (possibly reduced) (infants; meta-analysis of 70 RCTs): 0.75
macrosomia, RR (possible) (infants; [6]): 0.48
newborns' hyperbilirubinemia, RR (possible) (infants; [6]): 0.46
prolonged gestation (>42 weeks), RR (infants; meta-analysis, 6 RCTs, 5141 participants): 1.61
early preterm birth (<34 weeks), RR (infants; meta-analysis, 9 RCTs, 5204 participants): 0.58
low birth weight, RR (infants; meta-analysis, 15 trials, 8449 participants): 0.90
preterm birth (<37 weeks), RR (infants; meta-analysis, 26 RCTs, 10,304 participants): 0.89
mean increase in length of gestation (infants; meta-analysis, 41 trials, 12,517 participants): 1.67 days
risk of preeclampsia, RR (pregnant women; meta-analysis of 14 supplementation studies): 0.82
preeclampsia, RR (possibly reduced) (pregnant women; meta-analysis of 70 RCTs): 0.84
reduction of depression, SMD (pregnant women; meta-analysis of eight studies, 638 women with perinatal depression, 1-6 g/day): 0.65
prevention of perinatal depression (pregnant women; meta-analysis of prophylactic supplementation studies): did not demonstrate a significant benefit
HOMA-IR, std. MD (pregnant women; [6]): −0.52
fasting plasma glucose, std. MD (pregnant women; [6]): −0.56
high-sensitivity CRP, std. MD (pregnant women; [6]): −1.14
